What was measured:
murine motoneurons = test: In vitro neurite outgrowth of motoneurons; type: cell-based, C57BL/6J mice; conditions: tegaserod, cisapride, GR113808 100 nM; colominic acid 3 µM; PSA mimicking peptide 30 µM; Figure 2B
Procedure: (§1) Primary cultures of cerebellar neurons or Schwann cells were prepared from cerebellum or dorsal root ganglia of 7-day-old C57BL/6J mice as described in Mehanna et al. (2009), Brain, 132 (Pt 6): 1449-62 and Loers et al. (2005), J. Neurochem., 92(6): 1463-76. Motoneurons were prepared from E14 C57BL/6J mice as described in Simova et al. (2006), Ann. Neurol., 60(4): 430-437. In brief, 48-well plates were coated with 0.01% poly-L-lysine (PLL) or poly-L-ornithine (PLO) overnight at 4°C, washed twice with water and air-dried. Directly before use, plates were washed twice with PBS, and Schwann cells, cerebellar neurons (PLL) or motoneurons (PLO) were seeded at a density of 1.25 x 10^4 (Schwann cells and motoneurons) or 2.5 x 10^4 cells (cerebellar neurons) per well in 250 µl of corresponding serum-free culture medium. Soluble organic compounds were added to the culture 1 h after seeding in increasing concentrations. After maintenance for 24 h at 37°C, cells were fixed with 2.5% glutaraldehyde and stained with 1% methylene blue/toluidine blue in 1% borax. Morphological quantification of neurite or process lengths was performed as described in Mehanna et al. (2009), see above. Schwann cell processes and neurites of cerebellar neurons with a length of at least one cell body diameter were counted and total neurite or process length per cell was determined by counting 50 cells in each of two wells per experiment. At least three independent experiments were performed for each culture. Also, the activity of tegaserod with the PSA peptide mimic and the bacterial PSA analogue, colominic acid, on neurite and process extension experiments was compared.

[1] = system: cerebellar granule neurons (cGNs); test: In vitro neurite outgrowth of cerebellar granule neurons; type: cell-based, C57BL/6J mice; conditions: compared to control; Figure 2C, D
Procedure: as §1

[2] = system: murine cerebellar granule neurons (cGNs), Schwann cells, and motoneurons; test: In vitro neurite/process outgrowth, statements covering all cell types; type: cell-based, C57BL/6J mice
Procedure: as §1

[3] = system: motoneurons isolated from NCAM^-/- mice; test: In vitro neurite outgrowth of NCAM-deficient motoneurons; type: cell-based; conditions: tegaserod 100 nM; colominic acid 3 µM; PSA mimicking peptide 30 µM; Figure 2B
Procedure: as §1, with “After maintenance for 24 h at 37°C, cells were fixed with 2.5% glutaraldehyde and stained with 1% methylene blue/toluidine blue in 1% borax.” left out, “At least three independent experiments were performed for each culture. Also, the activity of tegaserod with the PSA peptide mimic and the bacterial PSA analogue, colominic acid, on neurite and process extension experiments was compared.” left out

Row | Molecule | effect on neurite extension of murine motoneurons (in words) (murine motoneurons) | effect on neurite outgrowth of cGNs (in words) [1] | concentration of maximal stimulatory effects ([2]; neurite and process extension of neurons and Schwann cells) | effect of overdosing / higher concentrations (in words) ([2]; neurons and Schwann cells) | effect on neurite extension of NCAM^-/- motoneurons (in words) [3]
1 | Cn1cc(C(=O)OCC2CCN(CCNS(C)(=O)=O)CC2)c2ccccc21 [GR 113808] | no ability to enhance motoneuron neurite extension |  |  |  | 
2 | COc1cc(N)c(Cl)cc1C(=O)NC1CCN(CCCOc2ccc(F)cc2)CC1OC (stereo not drawn) [cisapride] | no ability to enhance motoneuron neurite extension | not observed |  |  | 
3 | NTHTDPYIYPIDC [PSA mimicking peptide] | significant stimulatory effect |  | 30 µM | did not lead to any negative side effects | no enhancement in neurite extension
4 | NCCc1c[nH]c2ccc(O)cc12 [serotonin] | no ability to enhance motoneuron neurite extension | not observed |  |  | 

Reference: EP2724723A1, “Tegaserod for use in the treatment of nerve injuries” (Universitätsklinikum Hamburg-Eppendorf, priority 2012, dated 2014)
